In patent US6525094B1, “Method of treating hair loss using diphenylether derivatives” (The University of Texas Southwestern Medical Center, priority 1999, dated 2003):

System: male Sprague Dawley rats
Experiment: Cardiotoxicity Assay (heart-to-body weight ratio)
Assay type: in vivo, rat
Details: 250 μg of test compound per kg subcutaneously once daily for 28 days, hearts weighed on day 30
Source text: The cardiotoxicity assay measures the potential of a test compound to adversely affect the cardiovascular system. As thyroid hormone (T3) damages the cardiovascular system, the heart enlarges. See, e.g., Gomberg-Maitland et al., “Thyroid hormone and Cardiovascular Disease”, American Heart Journal, Vol. 135(2), pp. 187-196 (1998); Klein and Ojamaa, “Thyroid Hormone and the Cardiovascular System”, Current Opinion in Endocrinology and Diabetes, Vol. 4, pp.341-346 (1997); and Klemperer et al., “Thyroid Hormone Therapy and Cardiovascular Disease”, Progress in Cardiovascular Diseases, Vol. 37 (4), pp. 329-336 (1996). This increases the weight of the heart relative to whole body weight. The cardiotoxicity assay herein below is used to test compounds for potentially adverse cardiac effects by measuring their effect on the heart-to-body weight ratio.
Two groups each of six male Sprague Dawley rats (Harlan Sprague Dawley, Inc., Indianapolis, Ind.) (each weighing from approximately 220 grams to 235 grams) are utilized. The first group is a vehicle control group and the second group is a test compound group. The length of the assay is 30 days, with treatment of vehicle or test compound in vehicle daily for 28 of those days as described below.
Prior to initiation of the assay, each rat is allowed to acclimate to standard environmental conditions for 5 days. […]

**Q.** With `N[C@@H](Cc1cc(I)c(Oc2ccc(O)c(I)c2)c(I)c1)C(=O)O` [Example T3, thyronine] as the compound, how does the “cardiac-sparing (index C = RT/RV, heart/body weight ratio of test compound group divided by that of vehicle control group; C less than 1.3 = cardiac-sparing)” value read?
**A.** The value was “not cardiac-sparing”.

**Q.** Which “cardiac-sparing (index C = RT/RV, heart/body weight ratio of test compound group divided by that of vehicle control group; C less than 1.3 = cardiac-sparing)” value does the source give for `N[C@@H](Cc1cc(I)c(Oc2cc(I)c(O)c(I)c2)c(I)c1)C(=O)O` [Example T4, thyroxine] here?
**A.** Its value is “not cardiac-sparing”.
